# Experiments:
# monkey GLP-1R = test: Agonistic activity on GLP-1R of different species (LANCE Ultra cAMP assay): monkey; format: cell-based; conditions: ratio of EC50 value of other species to human EC50 value
# Protocol: The in vitro agonistic activity of the compound of the present invention on GLP-1R was measured in cells stably expressing human, dog, mouse, rat, rabbit, and monkey GLP-1R (human GLP-1R-HEK, dog GLP-1R-HEK, mouse GLP-1R-HEK, rat GLP-1R- in HEK, rabbit GLP-1R-CHO, monkey GLP-1R-HEK cells). Human GLP-1R-HEK, dog GLP-1R-HEK, mouse GLP-1R-HEK, rat GLP-1R-HEK, rabbit GLP-1R-CHO, and monkey GLP-1R-HEK cells were resuspended in 1×Casein Stimulation Buffer (HBSS, 5 mM HEPES, 0.5 mM IBMX, 0.1% casein, pH7.4), and seeded into a 384-well cell culture plate at 9 µL/well (cell numbers being 1000, 1000, 1000, 1500, 1000, 1000 cells/well, respectively). 1 µL of 1×Casein Stimulation Buffer containing 10× compound was added to the above-mentioned 384-well cell culture plate. The plate was incubated at 37 °C for 30 minutes. After the incubation was completed, 5 µL of Eu-cAMP working solution and 5 µL of Ulight^TM-cAMP working solution were added sequentially, centrifuged and then incubated at room temperature for 1 hour. The readings at 665 nm and 620 nm were determined with a 330 nm excitation light on a microplate reader. The 665 nm/620 nm reading ratio was calculated. […] GraphPad was used to perform nonlinear regression according to the response percentage and the concentration of the compound added to obtain the EC50 value for each compound.
# monkey GIPR = test: Agonistic activity on GIPR of different species (LANCE Ultra cAMP assay): monkey; format: cell-based; conditions: ratio of EC50 value of other species to human EC50 value
# Protocol: CHO-K1 cells were seeded in a 6-well plate at 0.6×10^6 cells/well and incubated overnight in an incubator at a temperature of 37 °C and a carbon dioxide concentration of 5%. The next day, CHO-K1 cell media were replaced. Then two tubes A and B were prepared for each plasmid. 100 µL Opti-MEM was added to tube A, then 4 µL Lipofectamine™ 3000 was added and mixed uniformly. 100 µL Opti-MEM was firstly added to tube B, then 2 µg of one of the plasmids (human GIPR-pcDNA5 (+) plasmid, dog GIPR-pcDNA5 (+) plasmid, mouse GIPR-pcDNA5 (+) plasmid, rat GIPR-pcDNA5 (+) plasmid, rabbit GIPR-pcDNA5 (+) plasmid, monkey GIPR-pcDNA5 (+) plasmid) was added and mixed uniformly, and 4 µL P3000™ was added to tube B and mixed uniformly (the ratio of plasmid to transfection reagent was 1 µg: 2 µL). […]
# 18-20 hours after transfection, human GIPR-CHO, dog GIPR-CHO, mouse GIPR-CHO, rat GIPR-CHO, rabbit GIPR-CHO, and monkey GIPR-CHO cells were resuspended in 1×Casein Stimulation Buffer (HBSS, 5 mM HEPES, 0.5 mM IBMX, 0.1% casein, pH7.4), and seeded into a 384-well cell culture plate at 9 µL/well (cell numbers being 1000, 2000, 2000, 2000, 2000, 2000 cells/well, respectively). […] The readings at 665 nm and 620 nm were determined with a 330 nm excitation light on a microplate reader. The 665 nm/620 nm reading ratio was calculated. […]
# obese dogs = test: Weight loss efficacy in obese dogs; format: in vivo; conditions: for SFV, change rate in abdominal fat indicators / TFV, change rate in abdominal fat indicators / VFV, change rate in abdominal fat indicators / rSFV, change rate in abdominal fat indicators / rVFV, change rate in abdominal fat indicators: Mean±SEM
# Protocol: In this study, the compound of the present invention was administered subcutaneously to obese dogs multiple times to detect changes in their body weights and elucidate the weight loss effect of the compound. Obese dogs aged 8 months or older with a body condition score (BCS) ≥6 were used in this study. The dogs were housed in appropriately sized cages under controlled environmental conditions with a room temperature of 20-26°C and a relative humidity of 40%-70%, and had free access to food and water. Experimental dogs with similar body weights and BCSs (body weight: 15~24 kg, BCS: 6~9) were randomly divided into four groups (n=6 per group): G1, G2, G3, and G4. Group G1 served as the vehicle control group. […] For Group G2 obese dogs, the first dose (4 nmol/kg) was administered on Day 1 (D1) and Day 8 (D8), adjusted to the second dose (6 nmol/kg) on Day 15 (D15), and further adjusted to the third dose ([…]) on Day 22 (D22), which third dose (96 nmol/kg) was maintained for the subsequent administrations on Day 29 (D29) and Day 36 (D36). For Group G3 obese dogs, the first dose (12 nmol/kg) was administered on D1 and D8, adjusted to the second dose (19 nmol/kg) on D15, and further adjusted to the third dose ([…]) on D22, which third dose (385 nmol/kg) was also maintained for the subsequent administrations on D29 and D36. For Group G4 dogs, the positive control Dirlotapide was administered orally at a dose of 0.5 mg/kg once per day (QD) for 42 consecutive days.
# After administration, the body weights of dogs in Group G4 receiving Dirlotapide were measured at a fixed time once daily, while the body weights of dogs in the other groups (G1, G2, and G3) were measured at a fixed time once every 7 days. Food intake was measured once per day after administration. Blood tests for routine and biochemical parameters were conducted before grouping and on D43. Imaging examinations of abdominal fat volume were performed before grouping and from D43 to D45 to measure total abdominal fat volume (TFV) and visceral abdominal fat volume (VFV), and to calculate subcutaneous abdominal fat (SFV). Body condition score (BCS), body mass index (BMI), and abdominal circumference (AC) were measured once a week. The data were statistically analyzed using ANOVA. If ANOVA was statistically significant (p < 0.05) and variances were homogeneous, Tukey's test was used for intergroup comparison. If variances were heterogeneous, Dunnet's T3 test was used. Results were expressed as mean ± standard error of the mean (Mean ± SEM). The significance level was set at 0.05, and both statistical and biological significance were considered in the analysis.
# [1] = D43, 4/6/96 nmol/kg s.c. QW, six administrations
# [2] = D43, 12/19/385 nmol/kg s.c. QW, six administrations
compound,measurement,setting,value
CC[C@H](C)[C@H](NC(=O)C(C)(C)NC(=O)[C@H](Cc1ccc(O)cc1)NC(=O)[C@H](CC(=O)O)NC(=O)[C@H](CO)NC(=O)[C@@H](NC(=O)C(C)(Cc1ccccc1)NC(=O)[C@@H](NC(=O)CNC(=O)[C@H](CCC(=O)O)NC(=O)C(C)(C)NC(=O)[C@@H](N)Cc1ccc(O)cc1)[C@@H](C)O)[C@@H](C)O)C(=O)NC(C)(C)C(=O)N[C@@H](CC(C)C)C(=O)N[C@@H](CC(=O)O)C(=O)N[C@@H](CCCCN)C(=O)N[C@@H](CCC(N)=O)C(=O)N[C@@H](C)C(=O)N[C@@H](CCC(N)=O)C(=O)N[C@@H](C)C(=O)N[C@@H](CCC(=O)O)C(=O)N[C@@H](Cc1ccccc1)C(=O)N[C@H](C(=O)N[C@@H](CCCCNC(=O)COCCOCCNC(=O)COCCOCCNC(=O)COCCOCCNC(=O)CC[C@H](NC(=O)CCCCCCCCCCCCCCCCCCCCC(=O)O)C(=O)O)C(=O)N[C@@H](Cc1c[nH]c2ccccc12)C(=O)N[C@@H](CC(C)C)C(=O)N[C@@H](CC(C)C)C(=O)N[C@@H](CCCCN)C(=O)NCC(=O)NCC(=O)N1CCC[C@H]1C(=O)N[C@@H](CO)C(=O)N[C@@H](CO)C(=O)NCC(=O)N[C@@H](C)C(=O)N1CCC[C@H]1C(=O)N1CCC[C@H]1C(=O)N1CCC[C@H]1C(=O)N[C@@H](CO)C(=O)N[C@@H](CCCCN)C(N)=O)C(C)C (stereo partly drawn) [Compound P016],GLP-1R EC50 ratio,monkey GLP-1R,2.66
same,GIPR EC50 ratio,monkey GIPR,5.77
same,"SFV, change rate in abdominal fat indicators",obese dogs; [1],-18.11±4.49
same,"TFV, change rate in abdominal fat indicators",obese dogs; [1],-16.16±5.88
same,"VFV, change rate in abdominal fat indicators",obese dogs; [1],-10.81±10.19
same,"rSFV, change rate in abdominal fat indicators",obese dogs; [1],4.80±6.52
same,"rVFV, change rate in abdominal fat indicators",obese dogs; [1],-1.51±3.56
same,"SFV, change rate in abdominal fat indicators",obese dogs; [2],-15.14±4.56
same,"TFV, change rate in abdominal fat indicators",obese dogs; [2],-13.00±4.47
same,"VFV, change rate in abdominal fat indicators",obese dogs; [2],-9.42±5.39
same,"rSFV, change rate in abdominal fat indicators",obese dogs; [2],4.19±4.19
same,"rVFV, change rate in abdominal fat indicators",obese dogs; [2],-2.41±2.12
same,effective dose for weight loss,obese dogs; s.c. QW escalating doses,96 nmol/kg
same,effective dose for weight loss,"obese dogs; s.c. QW escalating doses, equivalent of the nmol/kg dose",0.5 mg/kg
same,maximum weight loss,"obese dogs; s.c. QW escalating doses, six administrations",9.51%
